Values quoted from earlier work in US20100069397A1, “SEXUAL DYSFUNCTION COMPOUNDS” (Pharmacia AB, priority 2002, published 2010).

How the values were obtained:
[1] = dose of 1-3 mg, taken 0.5-1 h before sexual activity; per WO 00/40226
[2] = free base; per European Patent Application No. 0 960 621

| SMILES | therapeutic effect in sexual dysfunction [1] | solubility in water [2] |
| --- | --- | --- |
| CN[C@@H]1Cc2cccc3[nH]c(=O)n(c23)C1.O=C(O)/C=C\C(=O)O [(R)-5,6-dihydro-5-(methylamino)-4H-imidazo[4,5-ij]-quinolin-2(1H)-one (Z)-2-butenedioate (1:1)] | therapeutically effective | – |
| CCCc1nn(C)c2c(=O)[nH]c(-c3cc(S(=O)(=O)N4CCN(C)CC4)ccc3OCC)nc12 [sildenafil] | – | extremely low solubility in water |
